Assay results taken from article PMC5737116, “Biochemical Properties of Human D-Amino Acid Oxidase” (Frontiers in Molecular Biosciences, 2017).
Entries after “also recorded” stand apart in the source; their conditions may differ. Where two headings read alike, the source gives them in different places.

Experiments:
hDAAO holoenzyme [1] = target: T1, hDAAO holoenzyme (Homo sapiens, UniProt P14920); experiment: Ligand binding to hDAAO, protein fluorescence quenching; details: for Kd: 15°C
T1 construct: made in house; host or cells: E. coli
T1 sequence (P14920 whole entry): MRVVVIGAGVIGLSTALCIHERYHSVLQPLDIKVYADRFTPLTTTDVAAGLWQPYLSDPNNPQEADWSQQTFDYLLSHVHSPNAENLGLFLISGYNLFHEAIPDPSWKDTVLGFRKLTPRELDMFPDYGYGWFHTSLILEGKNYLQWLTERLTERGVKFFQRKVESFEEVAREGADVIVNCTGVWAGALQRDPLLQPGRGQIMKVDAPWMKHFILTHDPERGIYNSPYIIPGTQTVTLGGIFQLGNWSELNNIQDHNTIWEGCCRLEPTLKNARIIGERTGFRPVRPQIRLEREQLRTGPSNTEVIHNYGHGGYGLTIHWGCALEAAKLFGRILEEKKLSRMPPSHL

hDAAO [2] = target: T2, hDAAO (Homo sapiens, UniProt P14920); experiment: Modulation of hDAAO activity, standard activity assay; assay type: biochemical; details: for effect on hDAAO activity on D-alanine: D-alanine 2 or 28 mM, simultaneous 10 mM magnesium ions and 10 μM nucleotide
T2 construct: made in house; host or cells: E. coli
T2 sequence (P14920 whole entry): as above
Procedure: The effect of MgCl2 and CaCl2 (1 or 10 mM), of 10 μM ATP or GTP and of both divalent ions and nucleotides was assessed using the standard activity assay.

hDAAO [3] = target: T2, hDAAO; experiment: Oxygen-consumption activity assay, apparent kinetic parameters (substrate specificity); assay type: biochemical; details: for kcat / Km: apparent, 21% oxygen saturation, pH 8.5, 25°C; for oxidation by hDAAO: at 100 and 500 mM final concentration
hDAAO [4] = target: T2, hDAAO; details: cited from earlier work
hDAAO apoprotein [5] = target: T3, hDAAO apoprotein (Homo sapiens, UniProt P14920); experiment: Holoenzyme reconstitution, decrease in flavin fluorescence at 528 nm; assay type: binding
T3 construct: made in house; host or cells: E. coli
T3 sequence (P14920 whole entry): as above
Procedure: The holoenzyme reconstitution process was also investigated by adding increasing concentrations of apoprotein to ~1 μM of FAD and following the decrease in flavin fluorescence at 528 nm (excitation at 450 nm).

hDAAO apoprotein [6] = target: T3, hDAAO apoprotein; details: cited from earlier work
hDAAO apoprotein [7] = target: T3, hDAAO apoprotein; experiment: FAD binding to hDAAO apoprotein, protein fluorescence quenching; details: 15°C
Procedure: Protein fluorescence spectra were measured at 1 μM protein concentration (0.04 mg/mL) in 20 mM Tris-HCl buffer, pH 8.0, 100 mM NaCl, 10% (v/v) glycerol, 5 mM 2-mercaptoethanol, and 40 μM FAD for the holoenzyme and in 50 mM sodium pyrophosphate, pH 8.3 for the apoprotein; spectra were recorded using a Jasco FP-750 instrument and were corrected for the buffer contribution. Protein fluorescence spectra were recorded between 300 and 400 nm, with excitation at 280 nm. […] In all cases, Kd-values were determined using an hyperbolic plot.

hDAAO [8] = target: T2, hDAAO; experiment: Inhibition of D-serine oxidation by L-serine; assay type: biochemical
hDAAO [9] = target: T2, hDAAO; experiment: Reduction of FAD following anaerobic addition of L-amino acid; assay type: biochemical
Procedure: The ability of L-serine to bind at the hDAAO active site like the corresponding D-enantiomer is further confirmed by the observed reduction of FAD following anaerobic addition of the L-amino acid: 14 μM of hDAAO was reduced by 1 mM L-serine in >60 min.

hDAAO [10] = target: T2, hDAAO; details: cited from earlier work; remark: listed apart in the source
hDAAO [11] = target: T2, hDAAO; details: following enzyme inactivation; ref Kawazoe et al., 2006; cited from earlier work
hDAAO holoenzyme [12] = target: T1, hDAAO holoenzyme; experiment: Far-UV CD spectrum of hDAAO in the presence of ions and nucleotides; details: 1 or 10 mM
Procedure: Circular dichroism (CD) spectra were recorded using a Jasco J-815 spectropolarimeter (Jasco Co., Cremella, Italy) in 10 mM Tris-HCl, pH 8.0, 1% (v/v) glycerol, and 40 μM FAD. The cell path length was 0.1 cm for measurements in the 200- to 250-nm region (0.1 mg protein/mL) and 1 cm for measurements in the 250–350 nm range (0.4 mg protein/mL) (Caldinelli et al., [2010]).

[13] = apparent, 21% oxygen saturation, pH 8.5, 25°C, ref Molla et al., 2006
[14] = value in brackets, ref Raibekas et al., 2000
[15] = at pH 8.3, ref Kawazoe et al., 2007b
[16] = apparent, 21% oxygen saturation, pH 8.5, 25°C, ref Frattini et al., 2011

For `Nc1ncnc2c1ncn2[C@@H]1O[C@H](COP(=O)(O)OP(=O)(O)OP(=O)(O)O)[C@@H](O)[C@H]1O` [ATP], the “change in protein fluorescence” value (hDAAO holoenzyme [1]; up to 20 mM) was “no change” and the “effect on hDAAO activity on D-alanine” value (hDAAO [2]) was “not modified”.
In the case of `C[C@@H](N)C(=O)O` [D-Alanine], the specific activity (hDAAO [3]; saturating D-alanine concentration (28 mM), 25°C, pH 8.5, 200 μM FAD) is listed as 9.5 U/mg protein, the Km (hDAAO [4]; [13]) is listed as 1300 ± 200 µM and the kcat (hDAAO [4]; [13]) is listed as 5.2 ± 0.1 s⁻¹. For the same molecule, the Km (hDAAO [4]; [14]) was 1000 µM and the kcat (hDAAO [4]; [14]) was 10 s⁻¹.
In the case of `N[C@H](CC(=O)O)C(=O)O` [D-Aspartate], the kcat (hDAAO [4]; [13]) is listed as 6.7 ± 1.2 s⁻¹ and the kcat (hDAAO [4]; apparent, 21% oxygen saturation, pH 8.5, 25°C, ref Molla et al., 2006, listed as D-aspartate) is listed as 6.7 s⁻¹.
With `N[C@H](Cc1ccc(O)c(O)c1)C(=O)O` [D-DOPA, 3,4-dihydroxyphenylalanine] the Ki (hDAAO [3]) was 41300 µM, the kcat (hDAAO [3]) was ~ 40 s^−1 and the Km (hDAAO [3]; read-out: Km) was 6000 ± 1300 µM. The Km (hDAAO [4]; [15]) was 1500 µM, the kcat (hDAAO [4]; [15]) was 21.7 s⁻¹ and the Ki (hDAAO [4]; substrate inhibition effect, at pH 8.3, ref Kawazoe et al., 2007b) was 500 µM.
For `N[C@H](CCC(=O)O)C(=O)O` [D-Glutamate], the “change in protein fluorescence” value (hDAAO holoenzyme [1]; up to 50 mM) was “no change”, the Km (hDAAO [3]) was “b. d” and the kcat (hDAAO [3]) was “b. d”. For the same molecule, the “oxidation by hDAAO” value (hDAAO [3]) was “not oxidized”.
`Nc1ccccc1C(=O)C[C@@H](N)C(=O)O` [D-Kynurenine] showed a kcat (hDAAO [3]) of 0.09 ± 0.01 s⁻¹ and a Km (hDAAO [3]; read-out: Km) of 700 ± 400 µM.
In the case of `N[C@H](Cc1ccccc1)C(=O)O` [D-Phenylalanine], the Km (hDAAO [4]; [16]) is listed as 2700 ± 200 µM, the kcat (hDAAO [4]; [16]) is listed as 6.6 ± 0.1 s⁻¹ and the Km (hDAAO [4]; [15]) is listed as 1200 µM. The kcat (hDAAO [4]; [15]) was 15.5 s⁻¹.
For `O=C(O)[C@H]1CCCN1` [D-Proline], the Km (hDAAO [4]; [13]) is listed as 8500 ± 1000 µM and the kcat (hDAAO [4]; [13]) is listed as 10.2 ± 0.1 s⁻¹.
For `N[C@H](CO)C(=O)O` [D-Serine], the Km (hDAAO [4]; [13]) is given as 7500 ± 500 µM, the kcat (hDAAO [4]; [13]) is given as 3.0 ± 0.1 s⁻¹ and the Km (hDAAO [4]; [15]) is given as 3900 µM. For the same molecule, the kcat (hDAAO [4]; [15]) was 4 s⁻¹ and the Km (hDAAO [4]; [14]) was 1000 µM.
In the case of `N[C@H](Cc1c[nH]c2ccccc12)C(=O)O` [D-Tryptophan], the Km (hDAAO [4]; [16]) is listed as 1500 ± 100 µM and the kcat (hDAAO [4]; [16]) is listed as 3.2 ± 0.1 s⁻¹.
For `N[C@H](Cc1ccc(O)cc1)C(=O)O` [D-Tyrosine], the Km (hDAAO [4]; [15]) is given as 1100 µM and the kcat (hDAAO [4]; [15]) is given as 14.8 s⁻¹.
Work on `Cc1cc2nc3c(=O)[nH]c(=O)nc-3n(C[C@H](O)[C@H](O)[C@H](O)COP(=O)(O)OP(=O)(O)OC[C@H]3O[C@@H](n4cnc5c(N)ncnc54)[C@H](O)[C@@H]3O)c2cc1C` [FAD] yielded a Kd (hDAAO apoprotein [5]; 70 μM benzoate, monophasic, read-out: Kd) of 0.4 ± 0.04 µM, a Kd (hDAAO apoprotein [5]; absence of benzoate, ~1 μM FAD titrated with apoprotein, read-out: Kd, 1) of 0.67 ± 0.07 µM and a Kd (hDAAO apoprotein [5]; absence of benzoate, ~1 μM FAD titrated with apoprotein, read-out: Kd, 2) of 4 ± 0.9 µM. The “fold tighter interaction with FAD in the presence of an active site ligand” value (hDAAO apoprotein [6]; active site ligand such as benzoate, ref Molla et al., 2006) was 20 fold, the Kd (hDAAO apoprotein [6]; benzoate binding, ref Molla et al., 2006, Caldinelli et al., 2010, read-out: Kd, flavin interaction with benzoate bound) was 0.3 µM and the Kd (hDAAO apoprotein [6]; interaction with the flavin cofactor, ref Molla et al., 2006, read-out: Kd) was 8 µM. For the same molecule, the Kd (hDAAO apoprotein [7]; 7 μM benzoate, read-out: Kd, first phase) was 0.43 ± 0.02 µM, the Kd (hDAAO apoprotein [7]; 7 μM benzoate, read-out: Kd, second phase) was 19.1 ± 2.8 µM and the Kd (hDAAO apoprotein [7]; 70 μM benzoate, read-out: Kd, single saturation) was 0.48 ± 0.02 µM. The Kd (hDAAO apoprotein [7]; absence of active-site ligand, read-out: Kd, first phase) was 0.43 ± 0.02 µM and the Kd (hDAAO apoprotein [7]; absence of active-site ligand, read-out: Kd, second phase) was over 30 µM.
In the case of `Nc1nc2c(ncn2[C@@H]2O[C@H](COP(=O)(O)OP(=O)(O)OP(=O)(O)O)[C@@H](O)[C@H]2O)c(=O)[nH]1` [GTP], the “effect on hDAAO activity on D-alanine” value (hDAAO [2]) is reported as “not modified”.
In the case of `NCC(=O)O` [Glycine], the “change in protein fluorescence” value (hDAAO holoenzyme [1]; up to 50 mM) is given as “no change”, the “apparent Km, fold higher than physiological concentration” value (hDAAO [3]) is given as ~ 1,000 fold and the kcat (hDAAO [4]; [13]) is given as ~ 0.9 s^−1.
With `CC(=O)N[C@@H](CS)C(=O)O` [L-NAC, N-acetyl-L-cysteine] the “effect on hDAAO activity” value (hDAAO [2]; 1 or 10 mM, even when added 60 min before the assay) was “does not affect; also recorded: not altered”.
In the case of `N[C@@H](CO)C(=O)O` [L-serine], the type of inhibition (hDAAO [8]; D-serine oxidation at increasing L-serine concentrations) is reported as “competitive inhibitor”, the Ki (hDAAO [8]; competitive versus D-serine) is reported as 26200 µM and the “time for reduction of hDAAO flavin” value (hDAAO [9]; 14 μM hDAAO, 1 mM L-amino acid, anaerobic) is reported as over 60 min.
For `CN[C@H](CC(=O)O)C(=O)O` [N-Methyl-D-aspartate], the “change in protein fluorescence” value (hDAAO holoenzyme [1]; up to 50 mM) was “no change”, the “reduction of FAD following anaerobic addition” value (hDAAO [9]; compared with L-serine, not shown) was “not” and the Km (hDAAO [3]) was “b. d”. For the same molecule, the kcat (hDAAO [3]) was “b. d” and the “oxidation by hDAAO” value (hDAAO [3]) was “not oxidized”.
For `O=C(O)c1ccccc1` [benzoate], the Kd (hDAAO holoenzyme [1]; higher ligand concentrations, ~80% of fluorescence change, read-out: Kd, second saturation) is listed as 2590 ± 680 µM, the Kd (hDAAO holoenzyme [1]; low benzoate concentrations (≤ 20 μM), read-out: Kd, first saturation) is listed as 0.33 ± 0.04 µM and the Kd (hDAAO [10]; CD signal at ~270 nm, ref Caldinelli et al., 2010) is listed as 9.5 µM. The Kd (hDAAO [10]; formation of a shoulder at 484 nm in the absorbance spectrum, ref Raibekas et al., 2000, Molla et al., 2006) was 5 to 7 µM and the Ki (hDAAO [11]) was 7 µM.
In the case of `[Ca+2]` [calcium ions], the “effect on far-UV CD spectrum / protein conformation” value (hDAAO holoenzyme [12]) is reported as “slightly modified”.
In the case of `CN(C)CCCN1c2ccccc2Sc2ccc(Cl)cc21` [chlorpromazine], the “competition with FAD for the binding to hDAAO apoprotein” value (hDAAO apoprotein [6]; ref Iwana et al., 2008, Sacchi et al.) is listed as “compete with FAD”.
For `[Mg+2]` [magnesium ions], the “effect on far-UV CD spectrum / protein conformation” value (hDAAO holoenzyme [12]) was “do not modify” and the “effect on hDAAO activity” value (hDAAO [2]; 1 or 10 mM final concentration) was “do not modify”.
